Several values for one entry are separate records, joined by “and”; a condition that tells them apart may be missing. Equal entries are not always repeated. Where two headings read alike, the source gives them in different places. Marks after values point to notes of the source that are not given here.
Legend:
[1] = test system: advanced sarcoma; set-up: method as in earlier work; conditions: maintenance therapy, cited from earlier work
[2] = Whole blood pharmacokinetics of oral ridaforolimus 40 mg in Chinese patients (HPLC-MS/MS, WinNonlin); assay type: in vivo; conditions: for AUC(0-t): read-out: AUC0-24; for concentration at 24 h: read-out: C24hr
Experimental: (§1) The eligible patients were given the following treatment regimen: a single oral dose of 40 mg of ridaforolimus on Day 1; and then, the treatment started from Day 8 with an oral dose of 40 mg of ridaforolimus for five consecutive days (on Day 8 through Day 12) followed by two day's off (Day 13 and 14). The treatment repeated every 7 days. Four treatment weeks was considered one treatment cycle. Sample blood for PK analysis were collected at the following times: on Day 1 prior to drug administration and for 168 h post-dose (at 1, 2, 3, 4, 6, 8, 24, 72, 96, and 168 h post-treatment); on Day 8 and Day 15 prior to drug administration; on Day 19 prior to drug administration and for 24 h post-dose (at 1, 2, 3, 4, 6, 8 and 24 h post-treatment). We monitored patients’ vital signs and conducted laboratory and physical examinations on trial Day 1, 8 and 19.
Ridaforolimus concentration in both whole blood and plasma was analyzed using high-performance liquid chromatography with tandem mass spectrometric detection set at a lower limit of quantification of 0.2 ng/mL (Wuxi AppTec, Shanghai, China). Pharmacokinetic analyses were performed with WinNonlin, version 5.2.1 (Pharsight Corp., St. Louis, MO, USA). AUC0-∞, AUC0-24hr, C24hr, and Cmax were determined for each patient on Day 1 and on Day 19, if applicable, and the geometric means as well as the 95% CI were calculated. The accumulation of ridaforolimus was assessed for Cmax and for AUC0-24hr (geometric mean ratio Day 19 / Day 1 and 90% CI).

[3] = set-up: method as in PMID 18202410, PMID 19228743, PMID 22143378; conditions: Caucasians and Japanese patients, cited from earlier work
[4] = test system: treatment-refractory advanced or relapsed solid tumors; test: Tumor response (RECIST 1.1) in Chinese patients; assay type: in vivo
Experimental: (§2) The patients continued to receive 40 mg of ridaforolimus for five consecutive days followed by two day's off until disease progression or intolerability. Averse events were monitored every four weeks and AEs were graded according to the Common Terminology Criteria for Adverse Events version 4.0. We also monitored patients’ vital signs and conducted laboratory and physical examinations every four weeks. Radiographic studies for disease assessment were conducted at baseline and again after every two treatment cycles (thus, every eight weeks). Tumor responses were assessed according to the Response Evaluation Criteria for Solid Tumors 1.1 guidelines. We conducted a full safety assessment in all patients four weeks after the administration of the last treatment dose.

[5] = set-up: method as in internal PK data; conditions: Caucasian patients, ref internal PK data, cited from earlier work
[6] = Safety and tolerability (adverse events, CTCAE v4.0) of oral ridaforolimus 40 mg in Chinese patients; assay type: in vivo
Experimental: as §1, §2

[7] = set-up: method as in PMID 22143378; conditions: Japanese patients, cited from earlier work
[8] = Day 1, single oral dose 40 mg, whole blood, median
[9] = human, whole blood, po, 40 mg, Day 1, single oral dose 40 mg, whole blood, geometric mean
[10] = single dose, geometric mean (95% CI)
[11] = Grade 3 non-serious adverse event
[12] = Grade 4 non-serious adverse event
[13] = N = 15, not considered drug-related by the investigator
[14] = non-serious adverse event, all grades, N = 15

For `CO[C@H]1C[C@@H]2CC[C@@H](C)[C@@](O)(O2)C(=O)C(=O)N2CCCC[C@H]2C(=O)O[C@H]([C@H](C)C[C@@H]2CC[C@@H](OP(C)(C)=O)[C@H](OC)C2)CC(=O)[C@H](C)/C=C(\C)[C@@H](O)[C@@H](OC)C(=O)[C@H](C)C[C@H](C)/C=C/C=C/C=C/1C` [ridaforolimus, Ridaforolimus], the “Median PFS” value ([1]; vs 14.6 weeks for placebo, P = 0.0001) is given as 17.7 weeks, the “Median overall survival at data cut-off (386 deaths)” value ([1]; vs 83.4 weeks for placebo, P = 0.23) is given as 93.3 weeks and the “Linearity of blood PKs” value ([2]; AUC0-24hr at steady state lower than AUC0-∞ after single dose) is given as “non-linear”. The “Apparent t1/2 (elimination half-life)” value ([2]; Day 1, single oral dose 40 mg, whole blood, harmonic mean) was 52.9 h, the “Tlag (absorption lag time)” value [2, 8] was 2 h and 2.00 h and the Tmax [2, 8] was 4.03 h. The “Absorption after oral administration” value ([2]; human, in vivo, po) was “slowly absorbed”, the AUC(0-t) [2, 9] was 1850 ng·h/mL and the concentration at 24 h [2, 9] was 34.8 ng/mL. It also gave a Cmax ([2]; human, whole blood, po, 40 mg, Day 1, single oral dose 40 mg, whole blood, geometric mean, read-out: Cmax) of 210 ng/mL, a half-life ([2]; human, whole blood, po, 40 mg, Day 1, single oral dose 40 mg, whole blood, harmonic mean, read-out: Apparent t1/2 (elimination half-life) (converted)) of 53 h and a Tmax ([2]; human, whole blood, po, 40 mg, Day 1, single oral dose 40 mg, whole blood, median, read-out: Tmax) of 4 h. For the same molecule, the Cmax ([2]; human, whole blood, po, 40 mg, Day 1, single oral dose 40 mg, read-out: Cmax, median value) was 192 ng/mL, the AUC(0-t) ([2]; human, whole blood, po, 40 mg, Day 19, multiple once daily oral 40 mg (steady state), whole blood, geometric mean) was 2010 ng·h/mL and the concentration at 24 h ([2]; human, whole blood, po, 40 mg, Day 19, multiple once daily oral 40 mg, whole blood, geometric mean) was 49.7 ng/mL. The Cmax ([2]; human, whole blood, po, 40 mg, Day 19, multiple once daily oral 40 mg, whole blood, geometric mean, read-out: Cmax) was 167 ng/mL, the Tmax ([2]; human, whole blood, po, 40 mg, Day 19, multiple once daily oral 40 mg, whole blood, median, read-out: Tmax) was 4 h and the Cmax ([2]; human, whole blood, po, 40 mg, Day 19, multiple once daily oral 40 mg, read-out: Cmax, median value) was 203 ng/mL. The AUC(0-inf) ([2]; human, Day 1, single oral dose 40 mg, whole blood, geometric mean) was 3650 ng·h/mL, the Tolerability ([3]; oral 40mg per day for five consecutive days followed by two day's off) was “well tolerated” and the “Most important dose limiting toxicity” value ([3]; oral ridaforolimus) was “stomatitis”. For the same molecule, the “Patients who discontinued treatment because of progressive disease” value ([4]; N = 15) was “Eight”, the “Partial or complete responses” value ([4]; RECIST 1.1) was “absence of partial or complete responses” and the AUC0-24 ([5]; multiple dose) was 1882(1630, 2180) ng.hr/ml. The Cmax ([5]; multiple dose) was 160(136, 188) ng/ml, the AUC0-24 [5, 10] was 992(801, 1230) ng.hr/ml and the Cmax [5, 10] was 112(84.6, 148) ng/ml. For the same molecule, the t1/2 ([5]; single dose, harmonic mean (pseudo SD)) was 42.0(17.7)^d hr, the Tmax ([5]; single dose, median (min, max)) was 2.79(1.42, 9.78) hr and the “Accumulation ratio AUC0-24” value ([5]; geometric mean ratio (90% CI)) was 1.90(1.63, 2.21). The “Accumulation ratio Cmax” value ([5]; geometric mean ratio (90% CI)) was 1.43(1.22, 1.68), the “Anaemia Grade 3, number of patients” value [6, 11] was 2/15 and the “Anaemia Grade 3, percentage of patients” value [6, 11] was 13.3%. For the same molecule, the “Constipation Grade 3, number of patients” value [6, 11] was 1/15, the “Constipation Grade 3, percentage of patients” value [6, 11] was 6.7% and the “Fatigue Grade 3, number of patients” value [6, 11] was 2/15. For the same molecule, the “Fatigue Grade 3, percentage of patients” value [6, 11] was 13.3%, the “Gamma-glutamyltransferase increase Grade 3, number of patients” value [6, 11] was 1/15 and the “Gamma-glutamyltransferase increase Grade 3, percentage of patients” value [6, 11] was 6.7%. The “Platelet count decrease Grade 3, number of patients” value [6, 11] was 1/15, the “Platelet count decrease Grade 3, percentage of patients” value [6, 11] was 6.7% and the “Proteinuria Grade 3, number of patients” value [6, 11] was 1/15. The “Proteinuria Grade 3, percentage of patients” value [6, 11] was 6.7%, the “Stomatitis Grade 3, number of patients” value [6, 11] was 2/15 and the “Stomatitis Grade 3, percentage of patients” value [6, 11] was 13.3%. For the same molecule, the “Anaemia Grade 4, number of patients” value [6, 12] was 1/15, the “Anaemia Grade 4, percentage of patients” value [6, 12] was 6.7% and the “Platelet count decrease Grade 4, number of patients” value [6, 12] was 1/15. The “Platelet count decrease Grade 4, percentage of patients” value [6, 12] was 6.7%, the “Patients who discontinued as a result of drug-related fatigue” value ([6]; N = 15) was “one” and the “Patients who discontinued as a result of drug-related interstitial lung disease” value ([6]; N = 15) was “three”. The “Patients who discontinued as a result of drug-related stomatitis” value ([6]; N = 15) was “one”, the “Patients who discontinued due to drug-related AEs” value ([6]; N = 15) was “five” and the “Patients who discontinued treatment as a result of AEs” value ([6]; N = 15) was “six”. The “Patients who developed serious AEs, number” value [6, 13] was “Four”, the “Patients who developed serious AEs, percentage” value [6, 13] was 26.7% and the “Patients who developed Grade 2 interstitial pneumonitis” value ([6]; all recovered after interruption and glucocorticoids) was “Three”. For the same molecule, the “Non-serious AEs considered Grade 3” value ([6]; fifteen patients) was 11, the “Non-serious AEs considered Grade 4” value ([6]; fifteen patients) was 2 and the “Non-serious AEs deemed by the investigator as drug related” value ([6]; fifteen patients) was 111. For the same molecule, the “Total number of non-serious AEs reported” value ([6]; fifteen patients) was 135, the “Grade 3/4 drug-related AEs” value ([6]; human, in vivo) was “anemia, stomatitis, fatigue, thrombocytopenia, constipation, gamma glutamyltransferase increase, and proteinuria” and the “Most common drug-related adverse events (occurred in ≥40% of patients)” value ([6]; human, in vivo) was “stomatitis, proteinuria, leukopenia, hyperglycemia, and pyrexia”. For the same molecule, the “ALT increase, number of patients” value [6, 14] was 3, the “ALT increase, percentage of patients” value [6, 14] was 20% and the “Anemia, number of patients” value [6, 14] was 5. The “Anemia, percentage of patients” value [6, 14] was 33.3%, the “Blood alkaline phosphatase increased, number of patients” value [6, 14] was 4 and the “Blood alkaline phosphatase increased, percentage of patients” value [6, 14] was 26.7%. The “Blood cholesterol increased, number of patients” value [6, 14] was 5, the “Blood cholesterol increased, percentage of patients” value [6, 14] was 33.3% and the “Fatigue, number of patients” value [6, 14] was 4. The “Fatigue, percentage of patients” value [6, 14] was 26.7%, the “Gamma-glutamyltransferase increased, number of patients” value [6, 14] was 6 and the “Gamma-glutamyltransferase increased, percentage of patients” value [6, 14] was 40%. The “Hyperglycaemia, number of patients” value [6, 14] was 7, the “Hyperglycaemia, percentage of patients” value [6, 14] was 46.7% and the “Hypoalbuminaemia, number of patients” value [6, 14] was 5. For the same molecule, the “Hypoalbuminaemia, percentage of patients” value [6, 14] was 33.3%, the “Interstitial lung disease, number of patients” value [6, 14] was 3 and the “Interstitial lung disease, percentage of patients” value [6, 14] was 20%. The “Platelet count decrease, number of patients” value [6, 14] was 5, the “Platelet count decrease, percentage of patients” value [6, 14] was 33.3% and the “Proteinuria, number of patients” value [6, 14] was 11. For the same molecule, the “Proteinuria, percentage of patients” value [6, 14] was 73.3%, the “Pyrexia, number of patients” value [6, 14] was 6 and the “Pyrexia, percentage of patients” value [6, 14] was 40%. The “Stomatitis, number of patients” value [6, 14] was 12, the “Stomatitis, percentage of patients” value [6, 14] was 80% and the “White blood cell count decrease, number of patients” value [6, 14] was 8. For the same molecule, the “White blood cell count decrease, percentage of patients” value [6, 14] was 53.3%, the Tolerability ([6]; once a day oral dose of 40 mg, Chinese patients) was “generally well tolerated” and the “Changes from baseline over time in serum cholesterol, serum glucose, serum triglycerides” value ([6]; summary statistics, an elevation from baseline was observed) was “no clinically significant elevations”. For the same molecule, the AUC0-24 ([7]; multiple dose) was 2,120 (1,320, 3,410) ng.hr/ml, the Cmax ([7]; multiple dose) was 188 (116, 306) ng/ml and the Tmax ([7]; multiple dose) was 4.04 (4.00, 8.15) hr. The AUC0-24 [7, 10] was 1,470 (914, 2,360) ng.hr/ml, the Cmax [7, 10] was 187 (115, 304) ng/ml and the t1/2 ([7]; single dose, harmonic mean (jack-knife SD)) was 55.8 (50.95, 60.65)^c hr. For the same molecule, the Tmax ([7]; single dose, median (min, max)) was 4.00 (4.00, 8.00) hr, the “Accumulation ratio AUC0-24” value ([7]; geometric mean ratio (90% CI)) was 1.44 (1.05, 1.99) and the “Accumulation ratio Cmax” value ([7]; geometric mean ratio (90% CI)) was 1.01 (0.674, 1.50).
